Experimental data taken from patent US12201690B2, “Formulations/compositions comprising ibrutinib” (Janssen Pharmaceutica NV, priority 2018, dated 2025).

What was measured:
[1] = 1M ASAP (Accelerated Stability Assessment Program) stability study; assay type: physicochemical; details: samples stored for 1 month at 60° C.
Experimental: The new 25 concepts were screened in a 1M ASAP (Accelerated Stability Assessment Program) stability study (5, 40 and 60° C. storage conditions), in a 6M lab stability study and in PET tests.
The Results of the 6-Month (6M) Lab Stability

[2] = Microscope search for new needle-shaped (co-)crystals in stored/stressed suspensions; assay type: physicochemical; details: benzyl alcohol as preservative
Description: As consequence of the increased paraben concentration, a crystallization issue has been observed with the suspension Composition 2 after a few months in stability at different storage conditions. […] By IR, Raman and MS analysis, the new needle crystals are characterized as potentially being co-crystals of the API and Parabens.
Between the acceptable concepts 13 to 20, after 6M storage in cyclic conditions, only in the concept containing benzoic acid as an incipient was new crystallization observed. The other samples were stable. • All concepts were physically stressed by rolling.
All suspension concepts were rolled into a glass vial, closed with a child resistant stopper, at room temperature, horizontally, at a speed of 25 rpm, for 1M. […] Between these concepts, only concepts 18, 19 and 20 were stable.
Some concepts were spiked to try to induce a rapid co-crystallization. Concepts containing Methyl and Ethyl paraben, were spiked with few granules of powder of co-crystals of API/Methyl Paraben and API/Et Paraben.

| SMILES | reduction in preservative assay [1] | (co-)crystallization [2] |
| --- | --- | --- |
| C/C=C/C=C/C(=O)O [Sorbic acid] | about 15% | – |
| O=C(O)c1ccccc1 [benzoic acid] | about 5% | – |
| OCc1ccccc1 [benzyl alcohol] | 1% | not observed |
